Source: patent publication US12155103B2, “Electrochemical storage devices comprising chelated metals” (The Regents of the University of Colorado, a body corporate, priority 2019, dated 2024)
Like-named read-outs stand apart in the source and are kept apart here.

Tests used:
[1] = cited from earlier work
[2] = cited from earlier work; remark: listed apart in the source
[3] = Stability of iron-chelate complexes at pH 9
[4] = Cyclic voltammetry and kinetic analysis on glassy carbon electrode; format: physicochemical; settings: for Diffusion Coefficient (Do) / E^0 / Heterogenous Reduction Rate Constant (k^0): glassy carbon electrode
Procedure: Cyclic voltammetry was conducted using a Gamry Interface 1000 potentiostat, an Ag/AgCl aqueous reference electrode (3 M NaCl filling solution), a Pt wire counter electrode, and a 3-mm-diameter glassy carbon electrode. Half-cell experiments were conducted on a solution containing 5 mM K[Cr(PDTA)], 5 mM K4Fe(CN)6, and 0.125 M K2B4O7 at pH 9.
For an irreversible reaction, the peak current, ip, is given by equation (1).
[formula] where ip is in amperes, A is the electrode area (cm^2), CO° is the bulk concentration of oxidant (moles cm^−3), v is the potential sweep rate (V s^−1), DO is the diffusion coefficient of the oxidant, α is the charge transfer coefficient, and na is the number of […] involved in the rate-determining step. This equation reduces, at 25° C. to equation (2). ip=2.99*10^5n(αna)^1/2ACO^0DO^1/2v^1/2 (2) ip vs. v^1/2 was plotted, giving a straight line, with the slope being proportional to DO. Assuming an αna value of ½ allowed for the solving of DO. For a totally irreversible peak, the peak potential, Ep, is a function of scan rate, the difference between Ep and the formal potential, E^0′, being related to the standard heterogeneous rate constant, k°. The peak current can be expressed as show in equation (3).
[formula] Ln(ip) vs. (Ep−E°′), at different scan rates was plotting, with the intercept being proportional to and allowing solving for k°. E°′ was found in literature to be −1.31 V vs Ag/AgCl. The bulk concentration was 0.005 M, and na was 1 as there is only 1 electron being transferred. The area of the electrode is 0.0707 cm^2 from a 3 mm diameter glassy carbon electrode. Scan rates were done at 25, 50, 100, 200, and 500 mV s^−1. The slope of ip vs. v^1/2 was 0.0747, and the intercept of ln(ip) vs. (Ep−E°′) was −13.527.
Half-cell measurements were made using cyclic voltammetry (CV), which was conducted using a Gamry Interface 1000 potentiostat, an Ag/AgCl aqueous reference electrode (3 M NaCl filling solution), a Pt wire counter electrode, and a 3-mm-diameter glassy carbon working electrode, unless otherwise noted. Solutions were first sparged with an inert gas, for example N2, helium, neon, or argon, or combinations thereof, for at least 15 minutes and then kept under a blanket of an inert gas, such as N2, helium, neon, or argon, or combinations thereof, while tests were performed. All testing was performed at ambient temperatures. For carbon paper cyclic voltammetry experiments, the same setup was used as with the glassy carbon electrode, but the working electrode was a piece of carbon paper. For all chromium complexes and Fe(CN)6 solution 5 mM solutions were utilized for all CV experiments except those utilizing carbon paper electrodes which utilized 50 mM solutions. Other metal chelate complexes have concentrations that are specified in the figure captions.
Cyclic voltammetry (CV) was performed to compare the electrochemical behavior of FeDTPA and CrPDTA with their respective unchelated metal ions. […] Compared to their non-chelated counterparts, a greater electrochemical reversibility is observed in the chelated over the non-chelated metals (FIG. 32).

[5] = Maximum solubility at room temperature (saturated or concentrated solution, UV-Vis at 506 nm; bulk electrolysis for K2FeDTPA); format: physicochemical
Procedure: A saturated solution of KCrPDTA was prepared by dissolving KCrPDTA crystals in minimal DI water at room temperature such that crystals remain undissolved. The solution was agitated for 1 day. […] For the Na^+ cation with CrEDTA, the solubility was determined from a concentrated impure solution containing 3:1 NaCl. […] For the K2 with Fe-DTPA, the solubility was determined from a concentrated impure solution containing 3:1 KCl.

[6] = cited from earlier work; for reduction potential E^0: literature or previously reported values

| E^0 [4] [V vs Ag/AgCl] | Compound | Binding Constant (Fe^+2) [2] | Binding Constant (Fe^+3) [2] | Stability at pH 9 [3] | Heterogenous Reduction Rate Constant (k^0) [4] [×10⁻⁶ cm/s] | further results |
| --- | --- | --- | --- | --- | --- | --- |
|  | Mn EDTA |  |  |  |  | RFB Electrolyte solubility ([1]; pH 3): 400 mM; RFB Electrolyte solubility ([1]; pH 4.5): 400 mM; RFB Electrolyte solubility ([1]; pH 6): 400 mM; RFB Electrolyte solubility ([1]; pH 6.6): 400 mM; RFB Electrolyte solubility ([1]; pH 8.0): 400 mM |
|  | O=C([O-])CN(CCN(CC(=O)[O-])CC(=O)[O-])CC(=O)[O-].[Fe+3].[Na+] [FeEDTA] | 14.33 | 25.10 | Dimerizes |  |  |
|  | O=C([O-])CN(CCO)CCN(CC(=O)[O-])CC(=O)[O-].[Fe+3] [FeHEDTA] | 12.2 | 19.7 | Dimerizes |  |  |
| −0.15 | O=C([O-])CN(CCN(CC(=O)[O-])CC(=O)[O-])CCN(CC(=O)[O-])CC(=O)[O-].[Fe+3].[K+].[K+] [FeDTPA K2] |  |  |  | 15.5 | Diffusion Coefficient (Do) [4]: 2.41 10^−6 cm^2 s^−1; maximum solubility / highest concentration cycled ([5]; pH 9, 20° C., limited by viscosity): 1350 mM; Max Solubility at RT ([5]; room temperature): 1350 mM |
|  | [Fe+2].c1ccc(-c2ccccn2)nc1.c1ccc(-c2ccccn2)nc1.c1ccc(-c2ccccn2)nc1 [Fe(bpy)3] | 4.2 | 16.29 | Insoluble |  | reduction potential E^0 [6]: +0.903 V vs. Ag/AgCl |
| 0.55 | [Cl][Fe]([Cl])[Cl] [FeCl3] |  |  |  | 3.4 | Diffusion Coefficient (Do) [4]: 7.55 10^−6 cm^2 s^−1; heterogeneous reduction rate constant k^0 ([4]; glassy carbon, 3 M HCl): 3.4e-06 cm/s; reduction potential E^0 [6]: 0.55 V vs. Ag/AgCl |
|  | O=C(O)CN(CCN(CC(=O)O)CC(=O)O)CCN(CC(=O)O)CC(=O)O [DTPA, diethylenetriaminepentaacetic acid] | 16.55 | 28.60 |  |  |  |
|  | O=C(O)CN(CCN(CC(=O)O)CC(=O)O)CC(=O)O.[Cr] [CrEDTA] |  |  |  |  | Cr^3+/2+ reduction potential ([6]; near neutral pH): −0.99 V vs. SHE |

| Compound | E^0 [4] [V vs Ag/AgCl] | Binding Constant (Fe^+2) [2] | Binding Constant (Fe^+3) [2] | Stability at pH 9 [3] | Heterogenous Reduction Rate Constant (k^0) [4] [×10⁻⁶ cm/s] | further results |
| --- | --- | --- | --- | --- | --- | --- |
| [Cl][Cr]([Cl])[Cl] [CrCl3] | −0.64 |  |  |  | 10 |  |
